Source: patent publication US9745583B2, “Liposome for topical administration and application thereof” (DELTA-FLY PHARMA, INC., priority 2013, dated 2017)

How the values were obtained:
[1] = system: MSTO-211H-Luc cells; experiment: Tumor growth inhibition by intrathoracic TS-shRNA lipoplex in orthotopic mouse models of malignant pleural mesothelioma (Example 8); type: in vivo; conditions: compared with control; IVIS 21 days after implantation; lipoplex 20 μg shRNA intrathoracic x6; PMX 25 mg/kg i.p. x10
Method: Orthotopic implantation mouse models of malignant pleural mesothelioma using the MSTO-211H-Luc cells were prepared by the method described in Example 3, and mice in which implanted cells had been sufficiently fixed 7 days after implantation were subjected to in vivo experiment.
The TS-shRNA lipoplex or NS-shRNA lipoplex was directly administered into the thoracic cavity of a mouse carrying MSTO-211H-Luc cells every other day from 7 days to 17 days after the tumor implantation, and administration was carried out 6 times in total. A dose was 20 μg of shRNA/100 μl. […]
As described in Example 5, carcinostatic activity (i.e., cell growth inhibitory activity) was evaluated by implanting MSTO-211H-Luc cells, administering 100 μl of a D-luciferin potassium salt solution (7.5 mg/ml) intraperitoneally under anesthesia with isoflurane 21 days after implantation, and evaluating the bioluminescence levels depending on activity of the MSTO-211H-Luc cells that had grown in the thoracic cavity using IVIS (Xenogen, Alameda, Calif., U.S.A.).

[2] = system: TS gene; experiment: TS gene expression in collected tumor cells, quantitative RT-PCR (Example 9); type: in vivo, human; conditions: tumor cells collected 21 days after implantation; compared with control; GAPDH internal standard
Method: Mice of the groups subjected to the treatment in the same manner as in Example 8 were subjected to evaluation via IVIS 21 days after the implantation of the MSTO-211H-Luc cells, mice were sacrificed, tumor cells were collected from the thoracic cavity, and the inhibition of TS gene expression in the collected tumor cells was evaluated via quantitative RT-PCR.
RNA was extracted from tumor cells using the RNaqueous-micro kit (Ambion, Austin, Tex., U.S.A.) in accordance with the method recommended by the manufacturer. Reverse transcription of RNA into cDNA was carried out with the addition of Oligo (dT)20, dNTP, RNase inhibitor, and ReverTra Ace (Toyobo, Osaka, Japan) to RNA. Real-time PCR was carried out using the StepOnePlus real-time PCR system (Applied Biosystems, CA, U.S.A.), the reversely-transcribed cDNA as the template, and FastStart TaqMan Probe Master (ROX) and Universal ProbeLibrary (Roche Diagnostics GmbH, Manheim, Germany) as reagents, in accordance with the method recommended by the manufacturer. GAPDH was used as the internal standard.

[3] = system: MSTO-211H-Luc cells; experiment: Tumor growth inhibition by intrathoracic TS-lipoplex and TS-preplex in orthotopic models (Example 11); type: in vivo, mouse; conditions: IVIS 18 days after implantation; 20 μg shRNA intrathoracic x5; PMX 25 mg/kg i.p. x10
Method: Orthotopic implantation models of malignant pleural mesothelioma using the MSTO-211H-Luc cells were prepared by the method described in Example 4, and the mice 4 days after implantation were subjected to the in vivo experiment.
The TS-lipoplex or TS-preplex was administered directly into the thoracic cavity 4, 7, 10, 13, and 16 days after the tumor implantation, so that 20 μg (50 μl) of shRNA would be administered.
When an existing chemotherapeutic agent (Alimta; pemetrexed sodium hydrate (PMX), Eli Lilly) was used in combination, a dose of 25 mg/kg was intraperitoneally administered every day from 4 days to 8 days after the tumor implantation, the same amount of the agent was intraperitoneally administered after an interval of 2 days every day from 11 days to 15 days after the tumor implantation, and administration was carried out 10 times in total.
Two days after the final administration of the TS-lipoplex or TS-preplex (i.e., 18 days after the tumor implantation), 100 μl of a D-luciferin potassium salt solution (7.5 mg/ml) was administered intraperitoneally under anesthesia with isoflurane, and the bioluminescence levels depending on luciferase activity in the MSTO-211H-Luc cells that had grown in the thoracic cavity were evaluated using IVIS (Xenogen, Alameda, Calif., U.S.A.).

[4] = system: human malignant pleural mesothelioma cells (MSTO-211H); experiment: MTT assay, cell growth after shRNA transfection with or without PMX; type: cell-based; conditions: shRNA 5 or 10 nM with Lf RNAi MAX; in the presence of PMX 0.01 μg/ml; 0-96 hours
Method: This experiment was carried out on a 96-well plate scale. Transfection was carried out using Lipofectamine® RNAi MAX (hereafter referred to as “Lf RNAi MAX”), which is a cationic liposome, in accordance with the manufacturer's instructions.
shRNA (300 pmol of TS-shRNA or NS-shRNA) and 15 μl of Lf RNAi MAX were separately diluted with OptiMEM to prepare solutions (500 n1 each), the resulting solutions were mixed with each other, and the mixture was allowed to stand at room temperature for 10 to 20 minutes to form a complex (i.e., a lipoplex). A suspension of human malignant pleural mesothelioma cells (MSTO-211H) (2,000 cells/100 n1) was added to wells, 50 μl of lipoplex was added thereto 24 hours thereafter, and the final total volume was adjusted to 150 μl (the final shRNA concentration in the wells was adjusted to 5 nM or 10 nM). The medium was removed 24 hours after the initiation of transfection, and 200 μl of a fresh medium containing or not containing an existing cancer chemotherapeutic agent (“Alimta,” pemetrexed sodium hydrate, PMX, Eli Lilly) at 0.01 μg/ml was added thereto. The medium was removed 0, 24, 48, 72, and 96 hours after the addition of the fresh medium. […]
After the completion of incubation, acidic isopropanol (150 μl) was added to each well. […] Absorbance was determined at a wavelength of 570 nm using a plate reader. […]

Molecule | tumor growth inhibitory effects [1] | TS gene inhibitory effects (TS mRNA) [2] | tumor growth inhibitory effects [3] | growth of MSTO-211H cells (cell growth rate, MTT) [4]
Nc1nc2[nH]cc(CCc3ccc(C(=O)N[C@@H](CCC(=O)O)C(=O)O)cc3)c2c(=O)[nH]1 [PMX, pemetrexed sodium hydrate] | about 50% | about 25% | insignificant | 
TS-shRNA: TS-targeting shRNA, SEQ ID NO: 8 (GUAACACCAUCGAUCAUGAUAGUGCUCCUGGUUGUCAUGAUCGAUGGUGUUACUU; siRNA; shRNA hairpin, further chemistry not given here) |  |  |  | inhibited the growth of MSTO-211H cells to a significant extent
